Measured values taken from PMC5439065, “Effect of Naringenin, Quercetin, and Sesamin on Xenobiotica-Metabolizing CYP1A and CYP3A in Mice Offspring after Maternal Exposure to Persistent Organic Pollutants” (BioMed Research International, 2017).

Key:
[1] = system: CYP1A; assay: In vitro inhibition of EROD (7-ethoxyresorufin O-dealkylase) activity in hepatic microsomes; conditions: for Inhibition of EROD activity: all exposure groups, concentrations 5 to 100000 nM; for Ki at 5 min: CD-1, mouse, liver microsomes, pH 7.4, probe 7-ethoxyresorufin (0.005 to 4.0 µM)
Protocol: (§1) Liver samples were taken immediately after necropsy, frozen in ethanol and dry ice, and stored at −80°C until use. The microsomal fractions were prepared using a calcium aggregation method. Microsomal protein concentration was determined with a commercially available kit (Bio-Rad laboratories Inc., Hercules, CA, USA) according to the manufacturer's instructions.
(§2) In mice, O-dealkylation of 7-ethoxyresorufin is catalyzed by CYP1A1 and CYP1A2 [15], and O-dealkylation of 7-benzyloxyresorufin by CYP3A11 enzyme. The activities of CYP1A and CYP3A were determined as a rate of ethoxy- (EROD) and benzyloxy- (BROD) resorufin O-dealkylation, respectively. Incubation mixtures contained microsomal protein (0.2 mg), phosphate buffer (pH 7.4, 50 mM), and appropriate substrate (1 μM of 7-ethoxyresorufin or 2 μM of 7-benzyloxyresorufin). Reactions were initiated by the addition of 0.5 mM NADPH. The reaction mixture, in a final volume of 500 μL, was incubated in a water bath at 37°C for 5 min (EROD) or 7 min (BROD), and afterwards the reactions were terminated with ice-cold methanol (500 μL), followed by centrifugation at 7,500 ×g. Resorufin concentrations were measured as previously described. EROD and BROD activities were expressed as pmol of resorufin per milligram protein and minute.
(§3) EROD and BROD activities were initially evaluated in the presence of quercetin, naringenin, and sesamin at nine concentrations from 5 to 100000 nM. To examine the inhibition mode, the activities were determined in the presence of 2 or 3 inhibitor concentrations over the substrate concentration ranges 0.005 to 4.0 μM for EROD and 0.05 to 8 μM for BROD, respectively. The stock solutions of quercetin, naringenin, and sesamin were prepared in DMSO and added to incubations to yield final concentrations of 5, 10, 50, 100, 500, 1000, 2000, […], and 100000 nM. The final DMSO content in the incubations was 0.5%. The control incubations contained the same concentration of DMSO.
(§4) Comparison of enzymatic activities in the absence of the inhibitors between studied groups was performed on logarithmically transformed values using a mixed model with fixed effect of treatment (SAS version 9.3, SAS Institute Inc., Cary, NC, USA). The IC50 (concentration causing 50% reduction of control activity) and Ki values for inhibitors were calculated by nonlinear regression analysis using GraphPad prism version 4.0 for Windows (GraphPad, San Diego, CA, USA). Comparisons of IC50 and Ki values between the studied groups were performed on logarithmically transformed values using one-way analysis of variance, followed by the Tukey multiple-comparisons test. Differences were regarded as significant when P < 0.05.

[2] = biological target: T1, CYP3A (CYP3A11) (Mus musculus, UniProt Q64459); assay: in vitro; conditions: CD-1, mouse, microsomes; for IC50 at 7 min: pH 7.4, IC50, CYP3A (BROD), 2 μM 7-benzyloxyresorufin
T1 sequence (Q64459 1-504): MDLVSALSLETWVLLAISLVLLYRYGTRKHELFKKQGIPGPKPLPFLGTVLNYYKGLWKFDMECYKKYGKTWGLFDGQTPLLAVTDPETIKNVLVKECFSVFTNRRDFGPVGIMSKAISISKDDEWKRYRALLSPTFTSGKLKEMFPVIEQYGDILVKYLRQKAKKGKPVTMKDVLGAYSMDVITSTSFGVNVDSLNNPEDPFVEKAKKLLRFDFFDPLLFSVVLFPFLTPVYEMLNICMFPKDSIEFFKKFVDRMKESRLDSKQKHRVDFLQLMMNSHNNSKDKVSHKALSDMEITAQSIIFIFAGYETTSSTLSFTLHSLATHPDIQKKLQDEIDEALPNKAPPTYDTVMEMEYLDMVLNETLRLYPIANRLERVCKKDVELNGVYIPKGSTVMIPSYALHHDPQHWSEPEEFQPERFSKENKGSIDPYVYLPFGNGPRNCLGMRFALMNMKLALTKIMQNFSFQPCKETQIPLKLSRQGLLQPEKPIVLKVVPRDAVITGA
Protocol: as §1, §2, §3, §4

[3] = biological target: T2, CYP3A (Mus musculus, UniProt Q64459); assay: in vitro; conditions: 2 or 3 inhibitor concentrations, substrate 0.05 to 8 μM
T2 sequence (Q64459 1-504): T1 sequence (Q64459 1-504)
Protocol: as §1, §2, §3, §4

[4] = system: CYP1A (CYP1A1 and CYP1A2); assay: In vitro inhibition of EROD (7-ethoxyresorufin O-dealkylase) activity in hepatic microsomes; conditions: CD-1, mouse, liver microsomes, pH 7.4, probe 7-ethoxyresorufin (1 µM), IC50, CYP1A (EROD), geometric mean (confidence interval), 1 μM 7-ethoxyresorufin
Protocol: as §1, §2, §3, §4

[5] = microsomes from high POPs-exposed mice, geometric mean (confidence interval)
[6] = microsomes from low POPs-exposed mice, geometric mean (confidence interval)
[7] = microsomes from unexposed mice, geometric mean (confidence interval)
[8] = pH 7.4, Ki values, BROD activity, range over the unexposed, low- and high-exposed groups
[9] = pH 7.4, Ki, CYP3A (BROD), microsomes from high POPs-exposed mice, geometric mean (confidence interval)
[10] = pH 7.4, Ki, CYP3A (BROD), microsomes from low POPs-exposed mice, geometric mean (confidence interval)
[11] = pH 7.4, Ki, CYP3A (BROD), microsomes from unexposed mice, geometric mean (confidence interval)

Row | Compound | Inhibition of EROD activity [1] | Inhibition of EROD activity ([1]; listed as naringenin) | IC50 at 7 min [2, 5] | IC50 at 7 min [2, 6] | IC50 at 7 min [2, 7] | Ki at 7 min [2, 8] | Ki at 7 min [2, 9] | Ki at 7 min [2, 10] | Ki at 7 min [2, 11] | Mode of inhibition of BROD activity [3] | IC50 at 5 min ([4]; microsomes from high POPs-exposed mice) | IC50 at 5 min ([4]; microsomes from low POPs-exposed mice) | IC50 at 5 min ([4]; microsomes from unexposed mice) | Mode of inhibition of EROD activity ([1]; 2 or 3 inhibitor concentrations, substrate 0.005 to 4.0 μM) | Ki at 5 min ([1]; Ki values, EROD activity, range over the unexposed, low- and high-exposed groups) | Ki at 5 min ([1]; Ki, CYP1A (EROD), microsomes from high POPs-exposed mice, geometric mean (confidence interval)) | Ki at 5 min ([1]; Ki, CYP1A (EROD), microsomes from low POPs-exposed mice, geometric mean (confidence interval)) | Ki at 5 min ([1]; Ki, CYP1A (EROD), microsomes from unexposed mice, geometric mean (confidence interval))
1 | O=C1C[C@@H](c2ccc(O)cc2)Oc2cc(O)cc(O)c21 [Naringenin, naringenin] | No inhibition | Neither naringenin nor sesamin inhibited | 43.1 µM | 49.1 µM | 40.3 µM | 39.3 to 45.8 µM | 39.3 µM | 45.8 µM | 42.1 µM | noncompetitively inhibited | – | – | – | – | – | – | – | –
2 | O=c1c(O)c(-c2ccc(O)c(O)c2)oc2cc(O)cc(O)c12 [Quercetin, quercetin] | strongly inhibited | – | 35.7 µM | 27.1 µM | 30.2 µM | 64.9 to 75.3 µM | 75.3 µM | 64.9 µM | 67.1 µM | noncompetitively inhibited | 5.8 µM | 5.1 µM | 5.4 µM | competitively inhibited | 1.7 to 2.6 µM | 2.6 µM | 2.6 µM | 1.7 µM
